According to the supplement of paper PMC10307832:

Legend:
Assay in all cases: relative viability (nuclei count vs DMSO), 5 days (fraction); higher = more cells survive
AZD6482 = compound: Cc1cc([C@@H](C)Nc2ccccc2C(=O)O)c2nc(N3CCOCC3)cc(=O)n2c1 [AZD6482]
Method in brief: (§1)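 Viability was defined as treated-well nuclei divided by vehicle-well nuclei, with the median taken over replicate plates. Cells from lung cancer lines sat overnight at 37 °C in 1536-well plates, received five √10-spaced library-drug doses by pinning on vehicle-anchored plates, and grew 5 days without medium change before one-step fixation, permeabilisation and Hoechst staining, 4× imaging and MetaXpress nuclear counts. Only plates with control CV under 25% and at least one doubling were kept.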

[1] = compound: COc1cc2nc(N3CCCN(C)CC3)nc(NC3CCN(Cc4ccccc4)CC3)c2cc1OC
Method in brief: as §1

AZD6482 + Pemetrexed = compound: Cc1cc([C@@H](C)Nc2ccccc2C(=O)O)c2nc(N3CCOCC3)cc(=O)n2c1 [AZD6482] + Nc1nc2[nH]cc(CCc3ccc(C(=O)N[C@@H](CCC(=O)O)C(=O)O)cc3)c2c(=O)[nH]1 [Pemetrexed] (partner 0.2 µM)
Method in brief: (§2)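 Relative viability divides the nuclei count in treated wells by that in vehicle wells. Lung cancer cell lines were seeded in 1536-well plates, dosed by pin tool the next day, and fixed and stained after 5 days in one step with final 0.05% Triton X-100, 1% formaldehyde and 1 ug/ml Hoechst. Dosing was a single drug or a fixed anchor-drug dose plus five library-drug doses (not always all listed) in √10 steps, and values are medians of duplicate plates imaged at 4×.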

[2] = compound: COc1cc2nc(N3CCCN(C)CC3)nc(NC3CCN(Cc4ccccc4)CC3)c2cc1OC + COc1cccc2cc(-c3nc([C@H]4CC[C@H](C(=O)O)CC4)n4ncnc(N)c34)[nH]c12 [OSI-027] (partner 0.5 µM)
Method in brief: as §2

| Cell Line | relative viability (AZD6482; 0.08 µM) | relative viability (AZD6482; 0.253 µM) | relative viability (AZD6482; 0.8 µM) | relative viability (AZD6482; 2.53 µM) | relative viability (AZD6482; 8 µM) | relative viability ([1]; 0.2 µM) | relative viability ([1]; 0.6325 µM) | relative viability ([1]; 2 µM) | relative viability ([1]; 6.325 µM) | relative viability (AZD6482 + Pemetrexed; first compound 0.08 µM) | relative viability (AZD6482 + Pemetrexed; first compound 0.253 µM) | relative viability (AZD6482 + Pemetrexed; first compound 0.8 µM) | relative viability (AZD6482 + Pemetrexed; first compound 2.53 µM) | relative viability (AZD6482 + Pemetrexed; first compound 8 µM) | relative viability ([2]; first compound 0.2 µM) | relative viability ([2]; first compound 0.6325 µM) | relative viability ([2]; first compound 2 µM) | relative viability ([2]; first compound 6.325 µM) |
| --- | --- | --- | --- | --- | --- | --- | --- | --- | --- | --- | --- | --- | --- | --- | --- | --- | --- | --- |
| 201T | 0.977 | 0.97 | 0.969 | 0.771 | 0.958 | 0.976 | 1.05 | 1.01 | 0.983 | 0.31 | 0.295 | 0.27 | 0.314 | 0.342 | 0.706 | 0.811 | 0.73 | 0.601 |
| A549 | 0.935 | 0.965 | 0.947 | 0.566 | 0.769 | 1.02 | 1.01 | 0.992 | 0.935 | – | – | – | – | – | – | – | – | – |
| A-427 | 0.965 | 0.884 | 1.02 | 0.651 | 0.974 | 0.922 | 1.06 | 1.01 | 0.882 | 0.92 | 0.967 | 0.963 | 0.686 | 0.995 | 0.487 | 0.55 | 0.442 | 0.386 |
| ABC-1 | 0.953 | 0.897 | 0.97 | 0.849 | 0.713 | 0.924 | 1.12 | 1 | 0.926 | – | – | – | – | – | 0.479 | 0.583 | 0.444 | 0.336 |
| BEN | 0.889 | 0.791 | 1.05 | 0.803 | 0.853 | 1.03 | 1.06 | 1.19 | 1.04 | 0.766 | 0.589 | 0.829 | 0.512 | 0.703 | 0.317 | 0.28 | 0.288 | 0.244 |
| CAL-12T | 0.959 | 0.979 | 1.1 | 0.731 | 0.839 | 0.905 | 0.964 | 1.02 | 0.933 | 1.08 | 1.12 | 1.16 | 0.867 | 1.31 | 0.516 | 0.718 | 0.76 | 0.479 |
| COR-L23 | 0.808 | 1.02 | 1.08 | 0.845 | 0.834 | 0.942 | 1.03 | 1.06 | 1.03 | 0.198 | 0.205 | 0.197 | 0.182 | 0.204 | 0.882 | 0.735 | 0.802 | 0.765 |
| COR-L 105 | 0.825 | 0.904 | 0.874 | 0.577 | 0.801 | 0.868 | 1.08 | 0.793 | 0.621 | 0.935 | 1.13 | 1.26 | 0.761 | 1.21 | 0.534 | 0.882 | 0.487 | 0.554 |
| Calu-6 | 0.951 | 0.938 | 0.992 | 0.824 | 0.875 | 0.968 | 0.942 | 1.09 | 0.913 | – | – | – | – | – | – | – | – | – |
| ChaGo-K-1 | 1.07 | 0.839 | 1.05 | 0.91 | 0.983 | 0.944 | 0.985 | 1.03 | 0.94 | 0.259 | 0.262 | 0.271 | 0.262 | 0.258 | 0.572 | 0.604 | 0.564 | 0.501 |
| EBC-1 | 0.881 | 0.923 | 0.855 | 0.467 | 0.449 | 0.948 | 0.9 | 0.976 | 0.827 | – | – | – | – | – | – | – | – | – |
| EKVX | 0.813 | 0.819 | 0.832 | 0.549 | 0.654 | 0.953 | 1.04 | 0.962 | 0.954 | 0.368 | 0.373 | 0.317 | 0.265 | 0.348 | 0.755 | 0.662 | 0.736 | 0.666 |
| EMC-BAC-2 | 0.976 | 0.898 | 1.01 | 0.722 | 0.748 | 1.14 | 0.981 | 0.996 | 1.04 | 0.415 | 0.45 | 0.438 | 0.414 | 0.413 | 0.361 | 0.353 | 0.39 | 0.397 |
| EPLC-272H | 0.778 | 0.71 | 0.888 | 0.535 | 0.596 | 0.918 | 1 | 1.2 | 0.783 | 0.24 | 0.382 | 0.383 | 0.424 | 0.269 | 0.358 | 0.32 | 0.316 | 0.205 |
| H3255 | 0.996 | 0.918 | 0.979 | 0.688 | 0.835 | 0.915 | 0.986 | 1.1 | 0.961 | 0.535 | 0.577 | 0.583 | 0.464 | 0.507 | 0.513 | 0.534 | 0.587 | 0.692 |
| HARA | 0.844 | 0.978 | 1.13 | 0.782 | 0.875 | 0.895 | 1.13 | 1.08 | 0.919 | 0.217 | 0.241 | 0.278 | 0.254 | 0.253 | 0.535 | 0.483 | 0.454 | 0.398 |
| HCC-15 | 1.03 | 0.962 | 1.04 | 0.857 | 0.945 | 0.985 | 0.977 | 1.06 | 0.862 | 0.208 | 0.231 | 0.244 | 0.228 | 0.212 | 0.696 | 0.712 | 0.619 | 0.377 |
| HCC-44 | 0.873 | 0.971 | 1 | 1.05 | 1.03 | 0.98 | 0.996 | 0.998 | 0.981 | 0.669 | 0.661 | 0.763 | 0.741 | 0.831 | 0.604 | 0.571 | 0.576 | 0.586 |
| HCC-78 | 0.749 | 0.622 | 0.632 | 0.372 | 0.405 | 0.937 | 1.04 | 1.08 | 1.02 | 0.87 | 0.857 | 0.926 | 0.862 | 0.953 | 0.381 | 0.33 | 0.329 | 0.377 |
